# Reference: patent US9499550B2 (BRISTOL-MYERS SQUIBB COMPANY, priority 2012, dated 2016)
# How the values were obtained:
# [1] = tested on: HCV genotype 1b (Con1) replicon in HUH-7 cells; assay: HCV replicon luciferase reporter assay, genotype 1b; type: cell-based; conditions: Hepatitis C virus, Huh-7, 72 h, HCV genotype 1b replicon luciferase assay, 3 days incubation, range class, read-out: LE_1b (EC50, range)
# Outline: (§1)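 Replicon inhibition for both genotypes was measured as Renilla luciferase signal (EnduRen, 7.5 μM final, 2 h) after 3-day, 37° C exposure of replicon-bearing HUH-7 cells in 4% FCS DMEM, 0.5% DMSO. The 1b construct carries S1179I; the 1a H77 construct carries P1496L and S2204I. Twenty-point, 3-fold dilutions were fitted four-parametrically for EC50, and CC50 was taken from multiplexed Cell Titer-Blue.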
# [2] = tested on: HCV genotype 1a (H77 strain) replicon in HUH-7 cells; assay: HCV replicon luciferase reporter assay, genotype 1a; type: cell-based; conditions: Hepatitis C virus, Huh-7, 72 h, HCV genotype 1a replicon luciferase assay, 3 days incubation, range class, read-out: LE_1a (EC50, range)
# Outline: as §1
structure (smiles),measurement,setting,value
"COc1ccc2c(O[C@@H]3C[C@H]4C(=O)N[C@]5(C(=O)NS(=O)(=O)C6CC6)C[C@H]5/C=C\CC[C@H](C)C[C@@H](C)[C@H](NC(=O)O[C@H](C)C(F)(F)F)C(=O)N4C3)nc(N3CCOCC3)cc2c1 [Compound 3102, (R)-1,1,1-trifluoropropan-2-yl ((2R,6S,7R,9S,13aS,14aR,16aS,Z)-14a-((cyclopropylsulfonyl)carbamoyl)-2-((6-methoxy-3-morpholinoisoquinolin-1-yl)oxy)-7,9-dimethyl-5,16-dioxo-1,2,3,5,6,7,8,9,10,11,13a,14,14a,15,16,16a-hexadecahydrocyclopropa[e]pyrrolo[1,2-a][1,4]diazacyclopentadecin-6-yl)carbamate]",EC50,[1],< 5.46 nM
same,EC50,[2],4.82 to 103 nM
"COc1ccc2c(O[C@@H]3C[C@H]4C(=O)N[C@]5(C(=O)NS(=O)(=O)C6CC6)C[C@H]5/C=C\CC[C@@H](C)C[C@@H](C)[C@H](NC(=O)O[C@H](C)C(F)(F)F)C(=O)N4C3)nc(N3CCOCC3)cc2c1 [Compound 3103, (R)-1,1,1-trifluoropropan-2-yl ((2R,6S,7R,9R,13aS,14aR,16aS,Z)-14a-((cyclopropylsulfonyl)carbamoyl)-2-((6-methoxy-3-morpholinoisoquinolin-1-yl)oxy)-7,9-dimethyl-5,16-dioxo-1,2,3,5,6,7,8,9,10,11,13a,14,14a,15,16,16a-hexadecahydrocyclopropa[e]pyrrolo[1,2-a][1,4]diazacyclopentadecin-6-yl)carbamate]",EC50,[1],< 5.46 nM
same,EC50,[2],< 5.46 nM
"COc1ccc2c(O[C@@H]3C[C@H]4C(=O)N[C@]5(C(=O)NS(=O)(=O)C6CC6)C[C@H]5/C=C\CC[C@H](C)C[C@@H](C)[C@H](NC(=O)O[C@@H]5C[C@@H]6C[C@@H]6C5)C(=O)N4C3)nc(N3CCOCC3)cc2c1 [Compound 3104, (1R,3r,5S)-bicyclo[3.1.0]hexan-3-yl((2R,6S,7R,9S,13aS,14aR,16aS,Z)-14a-((cyclopropylsulfonyl)carbamoyl)-2-((6-methoxy-3-morpholinoisoquinolin-1-yl)oxy)-7,9-dimethyl-5,16-dioxo-1,2,3,5,6,7,8,9,10,11,13a,14,14a,15,16,16a-hexadecahydrocyclopropa[e]pyrrolo[1,2-a][1,4]diazacyclopentadecin-6-yl)carbamate]",EC50,[1],4.82 to 103 nM
same,EC50,[2],4.82 to 103 nM
"COc1ccc2c(O[C@@H]3C[C@H]4C(=O)N[C@]5(C(=O)NS(=O)(=O)C6CC6)C[C@H]5/C=C\CC[C@@H](C)C[C@@H](C)[C@H](NC(=O)O[C@@H]5C[C@@H]6C[C@@H]6C5)C(=O)N4C3)nc(N3CCOCC3)cc2c1 [Compound 3105, (1R,3r,5S)-bicyclo[3.1.0]hexan-3-yl((2R,6S,7R,9R,13aS,14aR,16aS,Z)-14a-((cyclopropylsulfonyl)carbamoyl)-2-((6-methoxy-3-morpholinoisoquinolin-1-yl)oxy)-7,9-dimethyl-5,16-dioxo-1,2,3,5,6,7,8,9,10,11,13a,14,14a,15,16,16a-hexadecahydrocyclopropa[e]pyrrolo[1,2-a][1,4]diazacyclopentadecin-6-yl)carbamate]",EC50,[1],< 5.46 nM
same,EC50,[2],< 5.46 nM
"COc1ccc2c(O[C@@H]3C[C@H]4C(=O)N[C@]5(C(=O)NS(=O)(=O)C6CC6)C[C@H]5/C=C\CC[C@H](C)C[C@@H](C)[C@H](NC(=O)OC(C)(C)C)C(=O)N4C3)nc(N3CCOCC3)cc2c1 [Compound 3106, tert-butyl ((2R,6S,7R,9S,13aS,14aR,16aS,Z)-14a-((cyclopropylsulfonyl)carbamoyl)-2-((6-methoxy-3-morpholinoisoquinolin-1-yl)oxy)-7,9-dimethyl-5,16-dioxo-1,2,3,5,6,7,8,9,10,11,13a,14,14a,15,16,16a-hexadecahydrocyclopropa[e]pyrrolo[1,2-a][1,4]diazacyclopentadecin-6-yl)carbamate]",EC50,[1],4.82 to 103 nM
same,EC50,[2],4.82 to 103 nM
"COc1ccc2c(O[C@@H]3C[C@H]4C(=O)N[C@]5(C(=O)NS(=O)(=O)C6CC6)C[C@H]5/C=C\CC[C@@H](C)C[C@@H](C)[C@H](NC(=O)OC(C)(C)C)C(=O)N4C3)nc(N3CCOCC3)cc2c1 [Compound 3107, tert-butyl ((2R,6S,7R,9R,13aS,14aR,16aS,Z)-14a-((cyclopropylsulfonyl)carbamoyl)-2-((6-methoxy-3-morpholinoisoquinolin-1-yl)oxy)-7,9-dimethyl-5,16-dioxo-1,2,3,5,6,7,8,9,10,11,13a,14,14a,15,16,16a-hexadecahydrocyclopropa[e]pyrrolo[1,2-a][1,4]diazacyclopentadecin-6-yl)carbamate]",EC50,[1],< 5.46 nM
same,EC50,[2],< 5.46 nM
"COc1ccc2c(O[C@@H]3C[C@H]4C(=O)N[C@]5(C(=O)NS(=O)(=O)C6(C)CC6)C[C@H]5/C=C\CC[C@H](C)C[C@@H](C)[C@H](NC(=O)OC(C)(C)C)C(=O)N4C3)nc(N(C)C)cc2c1 [Compound 3108, tert-butyl ((2R,6S,7R,9S,13aS,14aR,16aS,Z)-2-((3-(dimethylamino)-6-methoxyisoquinolin-1-yl)oxy)-7,9-dimethyl-14a-(((1-methylcyclopropyl)sulfonyl)carbamoyl)-5,16-dioxo-1,2,3,5,6,7,8,9,10,11,13a,14,14a,15,16,16a-hexadecahydrocyclopropa[e]pyrrolo[1,2-a][1,4]diazacyclopentadecin-6-yl)carbamate]",EC50,[1],4.82 to 103 nM
same,EC50,[2],4.82 to 103 nM
"COc1ccc2c(O[C@@H]3C[C@H]4C(=O)N[C@]5(C(=O)NS(=O)(=O)C6(C)CC6)C[C@H]5/C=C\CC[C@@H](C)C[C@@H](C)[C@H](NC(=O)OC(C)(C)C)C(=O)N4C3)nc(N(C)C)cc2c1 [Compound 3109, tert-butyl ((2R,6S,7R,9R,13aS,14aR,16aS,Z)-2-((3-(dimethylamino)-6-methoxyisoquinolin-1-yl)oxy)-7,9-dimethyl-14a-(((1-methylcyclopropyl)sulfonyl)carbamoyl)-5,16-dioxo-1,2,3,5,6,7,8,9,10,11,13a,14,14a,15,16,16a-hexadecahydrocyclopropa[e]pyrrolo[1,2-a][1,4]diazacyclopentadecin-6-yl)carbamate]",EC50,[1],4.82 to 103 nM
same,EC50,[2],4.82 to 103 nM
"COc1ccc2c(O[C@@H]3C[C@H]4C(=O)N[C@]5(C(=O)NS(=O)(=O)C6(C)CC6)C[C@H]5/C=C\CC[C@H](C)C[C@@H](C)[C@H](NC(=O)O[C@@H]5C[C@@H]6C[C@@H]6C5)C(=O)N4C3)nc(N(C)C)cc2c1 [Compound 3110, (1R,3r,5S)-bicyclo[3.1.0]hexan-3-yl((2R,6S,7R,9S,13aS,14aR,16aS,Z)-2-((3-(dimethylamino)-6-methoxyisoquinolin-1-yl)oxy)-7,9-dimethyl-14a-(((1-methylcyclopropyl)sulfonyl)carbamoyl)-5,16-dioxo-1,2,3,5,6,7,8,9,10,11,13a,14,14a,15,16,16a-hexadecahydrocyclopropa[e]pyrrolo[1,2-a][1,4]diazacyclopentadecin-6-yl)carbamate]",EC50,[1],4.82 to 103 nM
same,EC50,[2],4.82 to 103 nM
"COc1ccc2c(O[C@@H]3C[C@H]4C(=O)N[C@]5(C(=O)NS(=O)(=O)C6(C)CC6)C[C@H]5/C=C\CC[C@@H](C)C[C@@H](C)[C@H](NC(=O)O[C@@H]5C[C@@H]6C[C@@H]6C5)C(=O)N4C3)nc(N(C)C)cc2c1 [Compound 3111, (1R,3r,5S)-bicyclo[3.1.0]hexan-3-yl((2R,6S,7R,9R,13aS,14aR,16aS,Z)-2-((3-(dimethylamino)-6-methoxyisoquinolin-1-yl)oxy)-7,9-dimethyl-14a-(((1-methylcyclopropyl)sulfonyl)carbamoyl)-5,16-dioxo-1,2,3,5,6,7,8,9,10,11,13a,14,14a,15,16,16a-hexadecahydrocyclopropa[e]pyrrolo[1,2-a][1,4]diazacyclopentadecin-6-yl)carbamate]",EC50,[1],4.82 to 103 nM
same,EC50,[2],< 5.46 nM
"COc1ccc2c(O[C@@H]3C[C@H]4C(=O)N[C@]5(C(=O)NS(=O)(=O)C6(C)CC6)C[C@H]5/C=C\CC[C@H](C)C[C@@H](C)[C@H](NC(=O)O[C@H](C)C(F)(F)F)C(=O)N4C3)nc(N(C)C)cc2c1 [Compound 3112, (R)-1,1,1-trifluoropropan-2-yl ((2R,6S,7R,9S,13aS,14aR,16aS,Z)-2-((3-(dimethylamino)-6-methoxyisoquinolin-1-yl)oxy)-7,9-dimethyl-14a-(((1-methylcyclopropyl)sulfonyl)carbamoyl)-5,16-dioxo-1,2,3,5,6,7,8,9,10,11,13a,14,14a,15,16,16a-hexadecahydrocyclopropa[e]pyrrolo[1,2-a][1,4]diazacyclopentadecin-6-yl)carbamate]",EC50,[1],4.82 to 103 nM
same,EC50,[2],4.82 to 103 nM
"COc1ccc2c(O[C@@H]3C[C@H]4C(=O)N[C@]5(C(=O)NS(=O)(=O)C6(C)CC6)C[C@H]5/C=C\CC[C@@H](C)C[C@@H](C)[C@H](NC(=O)O[C@H](C)C(F)(F)F)C(=O)N4C3)nc(N(C)C)cc2c1 [Compound 3113, (R)-1,1,1-trifluoropropan-2-yl ((2R,6S,7R,9R,13aS,14aR,16aS,Z)-2-((3-(dimethylamino)-6-methoxyisoquinolin-1-yl)oxy)-7,9-dimethyl-14a-(((1-methylcyclopropyl)sulfonyl)carbamoyl)-5,16-dioxo-1,2,3,5,6,7,8,9,10,11,13a,14,14a,15,16,16a-hexadecahydrocyclopropa[e]pyrrolo[1,2-a][1,4]diazacyclopentadecin-6-yl)carbamate]",EC50,[1],4.82 to 103 nM
same,EC50,[2],< 5.46 nM
